Measured values published in patent publication US9861601B2 (The Board of Trustees of the Leland Stanford Junior …, priority 2012, dated 2018).
“Also recorded” adds a separate entry of the source.

How the values were obtained:
Recombinant human LTA4H = molecular target: T1, Recombinant human LTA4H (Homo sapiens, UniProt P09960); assay: In vitro epoxide hydrolase activity assay (LTB4 EIA readout); type: biochemical; conditions: LTA4 substrate 0.13 μM
T1 sequence (P09960 1-611): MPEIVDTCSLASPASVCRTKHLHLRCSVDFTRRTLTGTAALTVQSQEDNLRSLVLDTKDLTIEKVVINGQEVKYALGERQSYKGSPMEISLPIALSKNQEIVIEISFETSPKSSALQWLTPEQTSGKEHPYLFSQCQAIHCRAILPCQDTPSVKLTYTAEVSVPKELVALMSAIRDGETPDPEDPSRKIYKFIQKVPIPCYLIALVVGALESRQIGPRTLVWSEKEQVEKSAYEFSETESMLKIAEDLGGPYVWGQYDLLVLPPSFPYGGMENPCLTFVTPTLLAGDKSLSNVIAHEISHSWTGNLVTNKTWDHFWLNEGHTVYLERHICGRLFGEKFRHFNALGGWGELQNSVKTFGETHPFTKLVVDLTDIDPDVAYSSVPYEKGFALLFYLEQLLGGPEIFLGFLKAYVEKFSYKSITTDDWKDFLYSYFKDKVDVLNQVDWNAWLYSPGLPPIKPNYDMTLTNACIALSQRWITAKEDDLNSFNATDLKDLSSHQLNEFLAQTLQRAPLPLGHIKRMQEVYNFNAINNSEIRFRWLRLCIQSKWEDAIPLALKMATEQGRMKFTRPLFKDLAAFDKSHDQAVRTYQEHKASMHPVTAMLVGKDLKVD
Method: The LTA4H inhibitory activity of certain compounds in this invention was measured using an in vitro epoxide hydrolase activity assay. In this assay, an LTA4 substrate was first prepared from the methyl ester of LTA4 (Cayman Chemical), which was treated under nitrogen with […] of NaOH, at room temperature, for 40 min. The LTA4 substrate in its free acid form was kept frozen at −80° C. until use. Recombinant human LTA4H (36 ng) was incubated with various concentrations of test compounds for 10 min. at room temperature in assay buffer (0.1 M potassium phosphate, pH 7.4, 5 mg/ml fatty acid-free bovine serum albumin) in a volume of 200 μl. Then, the mixture was incubated with 25 μl of LTA4 substrate (final concentration, 40 ng/ml, 0.13 μM; final volume, 225 μl) for 30 min. at room temperature. The assay was terminated by diluting 20-fold with assay buffer. LTB4 production from each reaction was then assayed using the LTB4 EIA kit (catalog no. 520111, Cayman Chemical). The concentration of compound required for half-maximal inhibition of recombinant enzyme activity (IC50) was calculated by nonlinear regression using GraphPad Prism 4.0 (GraphPad Software Inc), one-site binding competition.

athymic rat model of PAH = assay: SU5416 athymic nude rat model of PAH (PH); type: in vivo; conditions: for reversal of established PH / PH-related death: treatment started 21 days (3 wk) after SU5416, doses as in b355, assessed at wk 5
Method: In the model, PH was first initiated by a single injection of a VEGFR2 inhibitor, SU5416, and monitored by weekly echocardiography. Survival of the animals was recorded on daily basis. […] After 5 weeks (day 35), animals were sacrificed after right heart catheterization. […] Oral availability of ubenimex was determined by pharmacokinetic analysis.
The athymic nude rat model is an accepted model of severe PAH associated with immune dysregulation. Athymic nude rats (rnu/rnu) (Charles River Laboratories) were used for these studies. Six to eight week old animals were injected subcutaneously (s.c.) with a single dose of either SU5416 (SU) (10 mg/kg) dissolved in DMSO or DMSO (vehicle) alone. All animals were maintained in normoxic conditions. PH progression was monitored by weekly echocardiography (ECHO). Survival of rats was monitored out to wk 5 when they underwent a terminal right heart catheterization. PH was confirmed by ECHO. Hemodynamic measurements included right ventricular systolic pressure (RVSP) determined by right heart catheterization and right ventricular hypertrophy (RVH) determined by the weight ratio of RV/(LV+S) (right ventricle/(left ventricle+septum)).
All animals were sacrificed 5 wk after SU administration for hemodynamic measurements. […] Serial improvement was observed from the time of treatment initiation. Interval improvement was manifested by decreasing RV wall thickness and increasing pulmonary artery acceleration times (PAAT) after initiation of treatment. […] Here again, the compound of Formula III was notable: treatment with that compound yielded an RVH ratio of 0.29. RVH for healthy rats is generally about 0.25.

[1] = test system: Rat pulmonary arterial endothelial cells (PAECs); assay: PAEC apoptosis assay (Annexin V flow cytometry, with or without macrophage co-culture); type: cell-based; conditions: for PAEC apoptosis induced by exogenous leukotriene (no macrophages): 24 hrs
Method: The transwell assay involved co-culturing IMØs from several sources with PAECs. IMØs, from (A) DMSO and (B) SU rat lungs, were isolated and co-cultured with PAECs. After 24 hr, PAEC apoptosis was analyzed by flow cytometry for Annexin V expression. To isolate the specific impact of LTB4 generated by 5-LO activation further, IMØs were extracted from healthy rats and transfected with S271E to produce a phosphorylation mimic mutant or with S271A to produce a dephosphorylation mimic mutant. Vector and WT 5-LO DNA-transfected IMØs were used as controls. Flow cytometry was performed on PAECs co-cultured with IMØs extracted from healthy rats and transfected with (C) vector as control, (D) WT 5-LO, (E) S271A, (F) S271E (G) S271E mutant treated with n-acetyl cysteine (NAC) (200 nM) or (H) S271A mutant treated with LTB4 (100 nM). PAECs were treated with (I) exogenous LTB4 (200 nM) or (J) LTB4 (200 nM) with a BLT1 inhibitor U75302 […] (n=3 experiments per group). Representative flow cytometry plots are shown, n=3 experiments per group.
The results reported in this example were obtained using the following PAEC apoptosis assay. Rat pulmonary arterial endothelial cells (PAECs) were co-cultured with macrophages (+/− transfection) for 24 hr. They were then washed once with PBS and once with binding buffer from the Annexin V Apoptosis Detection Kit (88-8007; eBioscience). Cells were then suspended in binding buffer at 1-5×10^6/ml. 5 μl of APC conjugated Annexin V was added to 100 μl of cells, which were then incubated at room temperature for 15 min. Five μl of propidium iodide staining solution were added 5 min. prior to flow cytometry analysis on an LSRFortessa cell analyzer (BD Biosciences).

## CC(=O)N[C@H](Cc1ccc(O)cc1)[C@H](OC(C)=O)C(=O)N[C@@H](CC(C)C)C(=O)O
Recombinant human LTA4H
  IC50: 43 ± 11 nM

## CC(=O)N[C@H](Cc1ccc(O)cc1)[C@H](O)C(=O)N[C@@H](CC(C)C)C(=O)O
Recombinant human LTA4H
  IC50: 13 ± 4 nM

## CC(C)C[C@H](NC(=O)[C@@H](O)[C@H](N)Cc1ccc(Oc2nc3ccccc3s2)cc1)C(=O)O [Formula III, (S)-2-((2S,3R)-3-amino-4-(4-(benzo[d]thiazol-2-yloxy)phenyl)-2-hydroxybutanamido)-4-methylpentanoic acid]
Recombinant human LTA4H
  IC50: 10 ± 5 nM
Athymic rat model of PAH; 1 mg/kg p.o. daily, sacrificed 5 wk after SU
  RVSP: 28 mm Hg
Athymic rat model of PAH; 1 mg/kg p.o. daily, sacrificed 5 wk after SU, RV/(LV+S)
  RVH ratio: 0.29

## O=C(O)C1CCN(Cc2ccc(Oc3nc4ccccc4s3)cc2)CC1 [JNJ26993135, 1-[4-(benzothiazol-2-yloxy)-benzyl]-piperidine-4-carboxylic acid]
Athymic rat model of PAH; SU-treated athymic rats
  accumulation of 5-LO expressing periarteriolar macrophages and B cells in lungs: significantly reduced
  in vivo PAEC apoptosis: reduced
Athymic rat model of PAH
  reversal of established PH / PH-related death: efficacious in reversing severe PH and preventing PH-related death; also recorded: reverses established PH

## CCCCC/C=C\C\C=C/C=C/C=C/[C@@H](SC[C@H](NC(=O)CC[C@H](N)C(=O)O)C(=O)NCC(=O)O)[C@@H](O)CCCC(=O)O [LTC4, leukotriene C4]
[1]
  PAEC apoptosis induced by exogenous leukotriene (no macrophages): did not induce PAEC apoptosis

## CCCCC/C=C\C\C=C/C=C/C=C/[C@@H](SC[C@H](N)C(=O)NCC(=O)O)[C@@H](O)CCCC(=O)O [LTD4, leukotriene D4]
[1]
  PAEC apoptosis induced by exogenous leukotriene (no macrophages): did not induce PAEC apoptosis

## CCCCC/C=C\C\C=C/C=C/C=C/[C@@H](SC[C@H](N)C(=O)O)[C@@H](O)CCCC(=O)O [LTE4, leukotriene E4]
[1]
  PAEC apoptosis induced by exogenous leukotriene (no macrophages): did not induce PAEC apoptosis

## CCCCCCCCCCCCC/C=C/[C@@H](O)[C@@H](N)COP(=O)(O)O [SIP, sphingosine-1-phosphate]
[1]; exogenously added
  rescue of PAECs co-cultured with S271E cells: able to rescue

## CCCCC/C=C\C[C@@H](O)/C=C/c1cccc(C[C@@H](O)CCCCO)n1 [U75302]
[1]; LTB4 (200 nM) with U75302, 24 hr
  LTB4-mediated PAEC apoptosis: prevented LTB4-mediated apoptosis

## CC(=O)Oc1ccccc1C(=O)O [aspirin]
Athymic rat model of PAH
  reversal of established PH / PH-related death: relatively less therapeutic

## COC(=O)[C@H](CC(C)C)NC(=O)[C@@H](OC(C)=O)[C@@H](Cc1ccc(Br)cc1)NC(C)=O [di-acyl ubenimex bromide, (S)-methyl 2-((2S,3R)-3-acetamido-2-acetoxy-4-(4-bromophenyl)butanamido)-4-methylpentanoate]
Recombinant human LTA4H
  IC50: 40 ± 22 nM

## COC(=O)[C@H](CC(C)C)NC(=O)[C@@H](OC(C)=O)[C@@H](Cc1ccccc1)NC(C)=O [di-acyl ubenimex, (S)-methyl 2-((2S,3R)-3-acetamido-2-acetoxy-4-phenylbutanamido)-4-methylpentanoate]
Recombinant human LTA4H
  IC50: 25 ± 18 nM

## O=C(NC1CCCCC1)NC1CCCCC1 [dicyclohexyl urea]
Athymic rat model of PAH
  reversal of established PH / PH-related death: relatively less therapeutic

## COC(=O)[C@H](CC(C)C)NC(=O)[C@@H](O)[C@@H](Cc1ccccc1)NC(C)=O [mono-acryl ubenimex, (S)-methyl 2-((2S,3R)-3-acetamido-2-hydroxy-4-phenylbutanamido)-4-methylpentanoate]
Recombinant human LTA4H
  IC50: 94 ± 21 nM

## COC(=O)[C@H](CC(C)C)NC(=O)[C@@H](O)[C@@H](Cc1ccc(Br)cc1)NC(C)=O [mono-acyl ubenimex bromide, (S)-methyl 2-((2S,3R)-3-acetamido-4-(4-bromophenyl)-2-hydroxybutanamido)-4-methylpentanoate]
Recombinant human LTA4H
  IC50: 93 ± 16 nM

## CC(=O)N[C@@H](CS)C(=O)O [n-acetyl cysteine]
[1]; NAC (200 nM)
  PAEC apoptosis in co-culture with S271E mutant macrophages: no diminution of apoptosis

## Oc1ccc(C=Cc2cc(O)cc(O)c2)cc1 [resveratrol]
Athymic rat model of PAH
  reversal of established PH / PH-related death: did not attenuate PH or improve survival

## COC(=O)[C@H](CC(C)C)NC(=O)[C@@H](O)[C@H](N)Cc1ccccc1 [ubenimex methy ester, (S)-methyl 2-((2S,3R)-3-amino-2-hydroxy-4-phenylbutanamido)-4-methylpentanoate]
Recombinant human LTA4H
  IC50: 54 ± 13 nM

## CC(c1cc2ccccc2s1)N(O)C(N)=O (centres unmarked) [zileuton, 1-[1-(1-benzothiophen-2-yl)ethyl]-1-hydroxyurea]
Athymic rat model of PAH
  reversal of established PH / PH-related death: mildly attenuated pressures and prevented death
